Data on 14 compounds can be found in PubChem BioAssay (NCI).

Some test systems named below: 786-0 renal; COLO 205 colon; DMS 273 small cell lung; M19-MEL melanoma; SNB-78 CNS; HS 578T breast; MDA-MB-231 breast; NCI/ADR-RES ovarian; T-47D breast; HOP-18 NSCLC.
What all share (assay): growth of human tumour cells (NCI), 48 h

The structures appear in SMILES notation.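 Cultured in 96-well plates, cells were exposed to test compound for 48 hours across five concentrations. GI50 = concentration required for 50% inhibition of growth. At the TGI there is no net growth.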

Turning to `COc1ccc(OCC(=O)O)c2c1CCCC2=O`, the TGI in the experiment with 786-0 renal, in the experiment with COLO 205 colon, in the experiment with DMS 273 small cell lung, in the experiment on M19-MEL melanoma and with SNB-78 CNS was more than 100 µM in each case.
With `N=c1c2c(-c3ccccc3)c(-c3ccccc3)n(Cc3ccccc3)c2ncn1C1CCC(O)CC1` (configuration not stated), the GI50 in the experiment on 786-0 renal was 2.12 µM; with COLO 205 colon it was 0.417 µM; in the experiment on HS 578T breast, 1.57 µM; in the experiment with MDA-MB-231 breast, 1.29 µM; in the experiment with NCI/ADR-RES ovarian it was 0.717 µM; in the experiment with T-47D breast, 0.911 µM. For the same compound, the TGI in the experiment on 786-0 renal worked out at 17.3 µM; with COLO 205 colon it was 2.23 µM; with HS 578T breast, 23.8 µM; with MDA-MB-231 breast, 4.65 µM; with NCI/ADR-RES ovarian, 18.4 µM; in the experiment with T-47D breast it was 18.3 µM.
For `NS(=O)(=O)c1ccc(N=Nc2c(O)c(C(=O)O)cc3ccccc23)cc1`, the TGI is more than 100 µM in the experiment with 786-0 renal; more than 84.2 µM with COLO 205 colon; more than 100 µM in the experiment with HS 578T breast; more than 100 µM in the experiment with MDA-MB-231 breast; more than 100 µM in the experiment on NCI/ADR-RES ovarian; more than 100 µM in the experiment with T-47D breast.
Take `COC(=O)c1c2c(c(C)[n+]([O-])c1C)C(=O)C=C(NCc1ccc(F)cc1)C2=O`: the GI50 in the experiment on 786-0 renal was 1.76 µM; with COLO 205 colon it was 0.301 µM; in the experiment on HS 578T breast it was 1.93 µM; in the experiment with MDA-MB-231 breast, 0.354 µM; with NCI/ADR-RES ovarian it was 0.432 µM; in the experiment with T-47D breast it was 0.288 µM. For the same compound, the TGI amounted to 4.39 µM in the experiment with 786-0 renal; 0.97 µM in the experiment with COLO 205 colon; 6.66 µM in the experiment with HS 578T breast; 4.46 µM in the experiment on MDA-MB-231 breast; 5.38 µM in the experiment on NCI/ADR-RES ovarian; 1.88 µM in the experiment with T-47D breast.
Turning to `CCN(CC)CCNc1nc(N)c(C#N)c(C#N)c1C#N`, the TGI in the experiment with 786-0 renal, in the experiment with COLO 205 colon, in the experiment with HS 578T breast, with MDA-MB-231 breast, with NCI/ADR-RES ovarian and in the experiment on T-47D breast was more than 10 µM throughout.
As for `O=C(NC[C@H](O)CN1CCc2ccccc2C1)c1cc(NC2COC2)ncn1`, the GI50 is 12.6 µM with 786-0 renal; 13.4 µM with COLO 205 colon; 19.1 µM in the experiment with HS 578T breast; 16.1 µM with MDA-MB-231 breast; 15.9 µM with NCI/ADR-RES ovarian; 9.26 µM with T-47D breast. For the same compound, the TGI was 41.9 µM with 786-0 renal; more than 100 µM in the experiment with COLO 205 colon; 81.4 µM with HS 578T breast; 46.9 µM with MDA-MB-231 breast; 57.9 µM in the experiment on NCI/ADR-RES ovarian; more than 100 µM in the experiment on T-47D breast.
In the case of `O=C(c1ccco1)c1c(C(F)(F)F)nc2ccc(Cl)cc2[n+]1[O-]`, the GI50 with 786-0 renal was more than 100 µM; in the experiment on COLO 205 colon it was 70.4 µM; in the experiment with HS 578T breast, 19.8 µM; with MDA-MB-231 breast it was more than 100 µM; with NCI/ADR-RES ovarian, more than 100 µM; in the experiment with T-47D breast, more than 100 µM. In addition, the TGI in the experiment with 786-0 renal is more than 100 µM; in the experiment with COLO 205 colon, more than 100 µM; in the experiment on HS 578T breast it was 51.4 µM; in the experiment on MDA-MB-231 breast, more than 100 µM; with NCI/ADR-RES ovarian, more than 100 µM; in the experiment on T-47D breast, more than 100 µM.
Consider `CCN1CCN(c2cc(C)c3cc(NC(=O)c4ccc(OC)c(OC)c4)ccc3n2)CC1`, for which the GI50 in the experiment on 786-0 renal is 7.12 µM; in the experiment with COLO 205 colon it was 3.23 µM; in the experiment on HS 578T breast, 8.55 µM; in the experiment with MDA-MB-231 breast, 11.2 µM; with NCI/ADR-RES ovarian it was more than 49.1 µM; with T-47D breast it was more than 39 µM. Besides, the TGI in the experiment with 786-0 renal is more than 55.3 µM; in the experiment on COLO 205 colon, more than 37.6 µM; with HS 578T breast it was more than 74.1 µM; in the experiment with MDA-MB-231 breast it was more than 100 µM; with NCI/ADR-RES ovarian, more than 100 µM; with T-47D breast, more than 100 µM.
As to `COc1ccc(CCN(C)C2CCC(C#N)(c3ccc(OC)c(OC)c3)CC2)cc1OC` (configuration not stated), the TGI in the experiment with 786-0 renal is more than 100 µM; in the experiment on COLO 205 colon, 91.4 µM; with DMS 273 small cell lung, more than 100 µM; in the experiment with HOP-18 NSCLC it was more than 100 µM; with M19-MEL melanoma, more than 100 µM.
In the case of `O=c1oc2ccc(-c3ccc(F)cc3F)cc2c(=O)n1-c1cccc(C(F)(F)F)c1`, the GI50 in the experiment with 786-0 renal is 2.47 µM; in the experiment on COLO 205 colon, 10.4 µM; in the experiment on HS 578T breast, 1.3 µM; in the experiment on MDA-MB-231 breast, 2.08 µM; with NCI/ADR-RES ovarian, 2.2 µM; in the experiment with T-47D breast, 0.317 µM. The TGI in the experiment with 786-0 renal is 6.5 µM; with COLO 205 colon, 24.7 µM; in the experiment with HS 578T breast, 7.28 µM; in the experiment with MDA-MB-231 breast, 7.37 µM; in the experiment on NCI/ADR-RES ovarian it was 8.9 µM; in the experiment on T-47D breast, 3.29 µM.
Turning to `CC1(C)COC(c2cccc3c2C(=O)c2cccc(Cl)c2-3)=N1`, the TGI in the experiment with 786-0 renal, in the experiment with COLO 205 colon, in the experiment with DMS 273 small cell lung and in the experiment on SNB-78 CNS was more than 100 µM in each case.
Regarding `CC(=O)Nc1ccc(-c2csc(Nc3cccc(-c4csc(C)n4)c3)n2)cc1`, the GI50 in the experiment with 786-0 renal was 2.03 µM; in the experiment with COLO 205 colon, 1 µM; in the experiment with HS 578T breast it was 3.83 µM; in the experiment on MDA-MB-231 breast, 1.28 µM; with NCI/ADR-RES ovarian, 0.642 µM; in the experiment on T-47D breast, 2.65 µM. Also, the TGI with 786-0 renal was 18.2 µM; in the experiment with COLO 205 colon it was more than 50 µM; in the experiment on HS 578T breast it was more than 30.4 µM; with MDA-MB-231 breast, 5.07 µM; in the experiment on NCI/ADR-RES ovarian it was 6.84 µM; with T-47D breast it was more than 43.2 µM.
For `S=c1[nH]c(=S)c2cc3ccccc3nc2[nH]1`, the GI50 with 786-0 renal is more than 100 µM; in the experiment on COLO 205 colon it was 20.3 µM; with HS 578T breast, 71.3 µM; in the experiment on MDA-MB-231 breast, 51 µM; with NCI/ADR-RES ovarian it was more than 100 µM; in the experiment on T-47D breast, 11.1 µM. For the same compound, the TGI in the experiment on 786-0 renal, in the experiment with COLO 205 colon, in the experiment with HS 578T breast, with MDA-MB-231 breast, with NCI/ADR-RES ovarian and in the experiment on T-47D breast was more than 100 µM each time.
As for `CSc1nc(SC)c2c(C#N)[nH]nc2n1`, the TGI in the experiment with 786-0 renal, in the experiment with COLO 205 colon, in the experiment on DMS 273 small cell lung, with M19-MEL melanoma and with SNB-78 CNS was more than 100 µM each time.
